We go through 32 molecules from patent US20250257060A1, “OXADIAZOLE COMPOUND, PHARMACEUTICAL COMPOSITION COMPRISING SAME, AND USE THEREOF” (SUZHOU GENHOUSE BIO CO., LTD., priority 2022, published 2025).

Read-outs that look alike come from different tables or passages of the source.

The target of one data set is HDAC6 (Homo sapiens (Human), UniProt Q9UBN7). The experiment in a line: HDAC6 enzymatic activity assay. It is filed as biochemical. How it is done:
The inhibitory activity of the compounds of the present application against HDAC6 was evaluated by an enzymatic activity assay. HDAC6 (Abcam), test compounds, and a 20 µM substrate solution (Ac-GAK(Ac)-AMC) were each added to a 384-well plate, and the plate was incubated at 37° C. for 30 min. […] and […] were added, and the plate was incubated at room temperature for 15 min. […] IC50 was obtained by fitting using GraphPadPrism 7.0 software.

A short description of data set [1]: Brain-to-blood drug concentration ratio of mice. The format is in vivo. The note with it: mouse, 5 mg/kg PO. The protocol:
On the day of administration, mice were weighed for actual body weight and the administration volume was calculated. In each group of 9 mice, the compound was administered by single intravenous (IV) injection or intragastric (PO) administration. Whole blood samples were collected via the orbit at prescribed time points. After blood sample collection, the samples were immediately transferred to labeled commercial sample tubes containing K2-EDTA (0.85-1.15 mg), followed by centrifugation (3200×g, 4° C., 10 min) and plasma collection. The plasma was transferred to a pre-cooled centrifuge tube, frozen in dry ice, and stored in an ultra-low temperature freezer at −60° C. or lower until the LC-MS/MS analysis. 20 μL of a plasma sample or brain tissue homogenate was taken and 80 μL of an internal standard solution (50 ng/mL solution of propafenone in acetonitrile) was added. The plate was sealed with a film sealer at 165° C., shaken on a micro oscillator (maximum vibration speed) for 10 min, and centrifuged at 4000 rpm for 20 min using a low-speed benchtop centrifuge, 10 μL of supernatant was transferred and 90 μL of acetonitrile was added. The mixture was vortexed and mixed well, and then the plate was sealed with the film sealer at 165° C. After the mixture was vortexed and mixed well, 1 μL of supernatant was taken for LC-MS/MS analysis. Plasma drug concentration data for the compounds were processed in a non-compartmental model using WinNonlin Version 6.3 (Pharsight, Mountain View, CA) pharmacokinetic software. The relevant pharmacokinetic parameters were calculated by a linear logarithmic trapezoid method.
Data processing: brain-to-blood drug concentration ratio of mice at the same time point=drug concentration in brain tissue/drug concentration in plasma

Data set [2] can be described thus: Pharmacokinetic test in mice (IV and PO). The format is in vivo, BALB/c mice. The note with it: for Cmax / AUC(0-inf) / AUC(0-t) / MRT inf / Vd / Tmax: BALB/c, mouse, plasma; for MRT inf: read-out: MRT(0-∞); for Vd: read-out: Vz. The protocol:
In this example, the pharmacokinetic behavior of the compounds after intravenous injection (IV) and intragastric (PO) administration in BALB/c mice was tested.
On the day of administration, mice were weighed for actual body weight and the administration volume was calculated. Each compound was tested in two groups with 3 mice in each group, one group administered by single intravenous injection and the other group of mice by single intragastric administration. Whole blood samples were collected via the orbit at prescribed time points (0.25 h, 0.5 h, 1 h, 2 h, 4 h, 8 h, and 24 h after administration). After blood sample collection, the samples were immediately transferred to labeled commercial sample tubes containing K2-EDTA (0.85-1.15 mg), followed by centrifugation (3200×g, 4° C., 10 min) and plasma collection. The plasma was transferred to a pre-cooled centrifuge tube, frozen in dry ice, and stored in an ultra-low temperature freezer at −60° C. or lower until the LC-MS/MS analysis.
Plasma concentrations were determined by a LC-MS/MS method. Plasma drug concentration data for compounds 1 and 2 were processed in a non-compartmental model using WinNonlin Version 6.3 (Pharsight, Mountain View, CA) pharmacokinetic software. The relevant pharmacokinetic parameters were calculated by a linear logarithmic trapezoid method.

[3] abbreviates: brain, read-out: Brain drug concentration.
The mark [4] stands for this setting: plasma, read-out: Blood drug concentration.

HDAC6, sequence (Q9UBN7 whole entry): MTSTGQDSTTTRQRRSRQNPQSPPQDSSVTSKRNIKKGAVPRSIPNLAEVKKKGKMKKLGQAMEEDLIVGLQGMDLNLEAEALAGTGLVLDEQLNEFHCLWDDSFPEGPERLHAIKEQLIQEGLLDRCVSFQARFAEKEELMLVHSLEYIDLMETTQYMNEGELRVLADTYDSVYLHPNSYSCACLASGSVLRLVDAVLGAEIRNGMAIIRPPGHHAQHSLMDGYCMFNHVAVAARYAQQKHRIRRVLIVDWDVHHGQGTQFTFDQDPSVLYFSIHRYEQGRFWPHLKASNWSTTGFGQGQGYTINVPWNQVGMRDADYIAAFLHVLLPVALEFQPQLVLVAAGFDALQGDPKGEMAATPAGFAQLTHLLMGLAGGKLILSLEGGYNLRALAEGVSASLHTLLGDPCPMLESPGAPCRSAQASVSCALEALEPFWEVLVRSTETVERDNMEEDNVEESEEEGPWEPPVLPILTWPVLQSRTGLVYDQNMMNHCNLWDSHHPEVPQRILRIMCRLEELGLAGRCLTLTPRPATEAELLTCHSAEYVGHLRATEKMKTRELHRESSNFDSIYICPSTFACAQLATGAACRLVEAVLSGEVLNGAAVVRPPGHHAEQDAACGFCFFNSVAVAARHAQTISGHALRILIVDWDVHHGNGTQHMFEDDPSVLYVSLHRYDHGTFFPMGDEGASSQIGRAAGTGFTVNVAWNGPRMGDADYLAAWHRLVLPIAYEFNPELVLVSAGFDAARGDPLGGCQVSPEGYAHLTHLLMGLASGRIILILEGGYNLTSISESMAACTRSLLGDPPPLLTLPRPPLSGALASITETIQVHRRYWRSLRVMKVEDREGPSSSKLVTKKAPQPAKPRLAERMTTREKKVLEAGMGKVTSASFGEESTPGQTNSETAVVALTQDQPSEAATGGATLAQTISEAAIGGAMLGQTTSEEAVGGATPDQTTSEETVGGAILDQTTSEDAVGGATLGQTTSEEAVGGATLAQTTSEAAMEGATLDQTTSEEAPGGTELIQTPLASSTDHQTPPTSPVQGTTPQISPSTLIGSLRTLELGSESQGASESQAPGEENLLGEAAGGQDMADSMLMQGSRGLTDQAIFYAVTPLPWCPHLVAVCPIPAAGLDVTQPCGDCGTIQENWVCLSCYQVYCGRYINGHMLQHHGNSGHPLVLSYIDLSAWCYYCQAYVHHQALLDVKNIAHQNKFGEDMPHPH

On HDAC6, `Cn1cc([C@H]([C@@H](O)c2ccccc2)N2Cc3ccc(-c4nnc(C(F)F)o4)cc3S2(=O)=O)cn1` (single isomer, unassigned) [Compound 79i-A] returned a half-inhibitory concentration (IC50) of 118 nM. In other words, the sub-micromolar range.

At HDAC6, `Cn1cc([C@H]([C@@H](O)c2ccccc2)N2Cc3ccc(-c4nnc(C(F)F)o4)cc3S2(=O)=O)cn1` (single isomer, unassigned) [Compound 79i-B] came in with an IC50 of 75.9 nM. This IC50 lies about 1.6-fold lower than the previous one.

As for `O=S1(=O)c2cc(-c3nnc(C(F)F)o3)ccc2CN1[C@@H](c1ccccn1)[C@H](O)c1ccc(F)cn1` (single isomer, unassigned) [Compound 84j-A-A], on HDAC6, the concentration for half-maximal inhibition (IC50) came to 210 nM.

For `O=S1(=O)c2cc(-c3nnc(C(F)F)o3)ccc2CN1[C@@H](c1ccccn1)[C@H](O)c1ccc(F)cn1` (single isomer, unassigned) [Compound 84j-A-B], the IC50 against HDAC6 came out at 23.1 nM.

As for `O=S1(=O)c2cc(-c3nnc(C(F)F)o3)ccc2CN1[C@@H](c1ccccn1)[C@H](O)c1ccc(F)cn1` (single isomer, unassigned) [Compound 84j-B], the IC50 against HDAC6 worked out at 113 nM. Compared with the last molecule, the IC50 is about 4.9-fold higher.

The molecule `O=S1(=O)c2cc(-c3nnc(C(F)F)o3)ccc2CN1[C@@H](c1ccc(F)cn1)[C@H](O)c1ccc(F)cn1` (single isomer, unassigned) [Compound 88j-A-A] gave an IC50 against HDAC6 of 584 nM.

As to `O=S1(=O)c2cc(-c3nnc(C(F)F)o3)ccc2CN1[C@@H](c1ccc(F)cn1)[C@H](O)c1ccc(F)cn1` (single isomer, unassigned) [Compound 88j-A], the IC50 against HDAC6 is 132 nM.

At HDAC6, `O=S1(=O)c2cc(-c3nnc(C(F)F)o3)ccc2CN1[C@@H](c1ccc(F)cn1)[C@H](O)c1ccc(F)cn1` (single isomer, unassigned) [Compound 88j-B] came in with an IC50 of 668 nM.

`Cn1cc([C@@H](O)[C@H](c2cnn(C)c2)N2Cc3ccc(-c4nnc(C(F)F)o4)cc3S2(=O)=O)cn1` (single isomer, unassigned) [Compound 95j-A]: the IC50 on HDAC6 is 231 nM.

`Cn1cc([C@@H](O)[C@H](c2cnn(C)c2)N2Cc3ccc(-c4nnc(C(F)F)o4)cc3S2(=O)=O)cn1` (single isomer, unassigned) [Compound 95j-B-A] yielded an IC50 against HDAC6 of 66.8 nM.

Regarding `Cn1cc([C@@H](O)[C@H](c2cnn(C)c2)N2Cc3ccc(-c4nnc(C(F)F)o4)cc3S2(=O)=O)cn1` (single isomer, unassigned) [Compound 95j-B-B], on HDAC6, 183 nM corresponded to half-maximal inhibition (IC50).

Turning to `Cn1cc([C@@H](O)[C@H](c2cnn(C)c2)N2Cc3ccc(-c4nnc(C(F)F)o4)cc3S2(=O)=O)cn1` (single isomer, unassigned) [Compound 95j-B], it took 29.9 nM to reach half-maximal inhibition on HDAC6 (IC50).

As to `O=S1(=O)c2cc(-c3nnc(C(F)F)o3)ccc2CN1[C@@H](c1cnccn1)[C@H](O)c1cnccn1` (single isomer, unassigned) [Compound 99j-A-A], the IC50 at HDAC6 was found to be 205 nM.

`O=S1(=O)c2cc(-c3nnc(C(F)F)o3)ccc2CN1[C@@H](c1cnccn1)[C@H](O)c1cnccn1` (single isomer, unassigned) [Compound 99j-A-B] yielded an IC50 against HDAC6 of 73.9 nM.

Consider `O=S1(=O)c2cc(-c3nnc(C(F)F)o3)ccc2CN1[C@@H](c1cnccn1)[C@H](O)c1cnccn1` (single isomer, unassigned) [Compound 99j-A], for which 148 nM corresponded to half-maximal inhibition against HDAC6 (IC50).

In turn, `O=S1(=O)c2cc(-c3nnc(C(F)F)o3)ccc2CN1[C@@H](c1cnccn1)[C@H](O)c1cnccn1` (single isomer, unassigned) [Compound 99j-B] came in with an IC50 at HDAC6 of 138 nM.

`O=C(N[C@@H]1CCCC[C@H]1N1Cc2ccc(-c3nnc(C(F)F)o3)cc2S1(=O)=O)C(F)(F)C(F)(F)F` [Compound 3] showed a half-inhibitory concentration (IC50) against HDAC6 of 46.1 nM.

Turning to `O=C(N[C@@H]1CCCC[C@H]1N1C(=O)c2ccc(-c3nnc(C(F)F)o3)cc2S1(=O)=O)C(F)F` [Compound 6], at HDAC6, 395 nM corresponded to half-maximal inhibition (IC50).

`CC(C)(C)OC(=O)N[C@@H]1CCCC[C@H]1N1Cc2ccc(-c3nnc(C(F)F)o3)cc2S1(=O)=O` [Compound 20] returned an IC50 on HDAC6 of 224 nM.

`O=S1(=O)c2cc(-c3nnc(C(F)F)o3)ccc2CN1[C@@H]1CCCC[C@H]1O` [Compound 21]: the IC50 on HDAC6 stood at 742 nM.

Molecule `CS(=O)(=O)N[C@@H]1CCCC[C@H]1N1Cc2ccc(-c3nnc(C(F)F)o3)cc2S1(=O)=O` [Compound 24] displayed an IC50 on HDAC6 of 194 nM.

Regarding `CC(F)(F)C(=O)N[C@@H]1CCCC[C@H]1N1Cc2c(F)cc(-c3nnc(C(F)F)o3)cc2S1(=O)=O` [Compound 39], the IC50 at HDAC6 was 261 nM.

Turning to `O=C(N[C@@H]1CCCC[C@H]1N1Cc2c(F)cc(-c3nnc(C(F)F)o3)cc2S1(=O)=O)C(F)F` [Compound 40], it took 252 nM to reach half-maximal inhibition on HDAC6 (IC50).

Molecule `O=S1(=O)c2cc(-c3nnc(C(F)F)o3)ccc2CN1[C@@H]1COCC[C@H]1O` [Compound 49] displayed an IC50 at HDAC6 of 820 nM.

`O=C(N[C@@H]1CCCC[C@H]1N1Cc2ccc(-c3nnc(C(F)F)o3)cc2S1(=O)=O)C(F)(F)F` [Compound 55]: the IC50 at HDAC6 was determined as 48.4 nM.

`O=S1(=O)c2cc(-c3nnc(C(F)F)o3)ccc2CN1Cc1cccc(Cl)c1` [Compound 60] came in with an IC50 against HDAC6 of 490 nM.

With `O=S1(=O)c2cc(-c3nnc(C(F)F)o3)ccc2CN1C(c1ccccn1)[C@H](O)c1ccccn1` (stereo partly shown) [Compound 70i-A], half-maximal inhibition on HDAC6 (IC50) was put at 137 nM.

Consider `Cn1cc(-c2ccccc2N2Cc3ccc(-c4nnc(C(F)F)o4)cc3S2(=O)=O)cn1` [Compound 72], for which the IC50 against HDAC6 was found to be 399 nM. This IC50 is about 2.9-fold higher than that of the molecule before.

Consider `Cn1cc([C@@H]([C@H](O)c2ccccc2)N2Cc3ccc(-c4nnc(C(F)F)o4)cc3S2(=O)=O)cn1` [Compound 80], for which the concentration at 2 h in data set [1] (setting [3]) came to 160 ng/mL. Besides, the concentration at 8 h in data set [1] (brain, 8 h, read-out: Brain drug concentration) is 72 ng/mL. In addition, the Kp at 2 h in data set [1] (brain/plasma) came out at 0.08. The Kp at 8 h in data set [1] (brain/plasma, 8 h) is 0.1. Moreover, the concentration at 2 h in data set [1] (setting [4]) came out at 1910 ng/mL. The concentration at 8 h in data set [1] (plasma, 8 h, read-out: Blood drug concentration) came out at 695 ng/mL. Moreover, the Cmax in data set [2] (po, 5 mg/kg, read-out: C0/Cmax) worked out at 7.17 µM. Further, in data set [2] (mice, IV 1 mg/kg), the AUC(0-inf) amounted to 5.28 µM·h, the AUC(0-t) was 5.05 µM·h, the MRT inf stood at 2.6 h and the Vd was 1 L/kg. Moreover, in data set [2] (mice, IV 1 mg/kg), the CLz was found to be 6.7 mL/min/kg and the t½z is listed as 1.8 h. Besides, the Cmax in data set [2] (mice, IV 1 mg/kg (C0)) was 1.91 µM. Moreover, in data set [2] (mice, PO 5 mg/kg), the AUC(0-inf) was 34 µM·h, the AUC(0-t) was 25.5 µM·h, the Tmax came to 1 h and the MRT inf was determined as 5.6 h. In data set [2] (mice, PO 5 mg/kg), this molecule showed an F of 101.2% and a t½z of 4.2 h.

For the molecule `O=S1(=O)c2cc(-c3nnc(C(F)F)o3)ccc2CN1[C@H](c1ccccn1)[C@H](O)c1ccc(F)cn1` [Compound 87], the concentration at 2 h in data set [1] (setting [3]) came to 298 ng/mL. In addition, in data set [1] (brain/plasma), the Kp at 2 h came to 0.28. Also, the concentration at 2 h in data set [1] (setting [4]) came out at 1060 ng/mL. Also, the Cmax in data set [2] (po, 5 mg/kg, read-out: C0/Cmax) is 5.75 µM. Further, in data set [2] (mice, IV 1 mg/kg), the AUC(0-inf) amounted to 1.77 µM·h, the exposure AUC(0-t) is 1.62 µM·h, the MRT inf is 0.8 h and the Vd stood at 0.9 L/kg. In data set [2] (mice, IV 1 mg/kg), this molecule came in with a CLz of 18.3 mL/min/kg and a t½z of 0.6 h. The molecule also registered a Cmax in data set [2] (mice, IV 1 mg/kg (C0)) of 1.89 µM. Moreover, in data set [2] (mice, PO 5 mg/kg), the AUC(0-inf) stood at 15.5 µM·h, the AUC(0-t) worked out at 15.1 µM·h, the Tmax worked out at 1 h and the MRT inf came out at 2.3 h. In data set [2] (mice, PO 5 mg/kg), this molecule had an F of 175.8% and a t½z of 1.5 h.

Molecule `COC(=O)N[C@@H]1CCCC[C@H]1N1Cc2ccc(-c3nnc(C(F)F)o3)cc2S1(=O)=O` [Compound 92] had an IC50 against HDAC6 of 164 nM.

Regarding `CNC(=O)N[C@@H]1CCCC[C@H]1N1Cc2ccc(-c3nnc(C(F)F)o3)cc2S1(=O)=O` [Compound 94], on HDAC6, the half-inhibitory concentration (IC50) was determined as 203 nM.

What is called IC50 is the concentration needed to halve the response being measured. As a reminder, the Kp is the ratio of the level in a tissue or fluid to that in plasma or blood. One may read the AUC(0-inf) as total exposure, with the tail of the curve extrapolated. What is called AUC(0-t) is the area under the concentration-time curve up to a stated or last time point. High values mean high exposure, low ones low exposure. Usually Tmax stands for the time at which the peak concentration occurs.
